# Source: patent US12692274B2, “Tetrahydroisoquinoline derivatives for the treatment of red blood disorders and inflammatory diseases” (Sanofi, priority 2020, dated 2026)
# Several values for one entry are separate records, joined by “and”; a condition that tells them apart may be missing. Equal entries are not always repeated.
# How the values were obtained:
# [1] = tested on: NQO1 activation in BEAS-2B cells; test: BEAS-2B cellular MTT assay of NQO1 activation, 0% HSA; type: cell-based
# How it was run: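 BEAS-2B cells grown in BEBM with BEGM SingleQuots (no GA-1000), kept below 70% confluence, seeded on collagen plates at a density giving 95-100% confluence after 48 h. Plates seeded in medium without HSA (0% HSA condition).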
# [2] = tested on: NQO1 activation in BEAS-2B cells; test: BEAS-2B cellular MTT assay of NQO1 activation, 0.3% HSA; type: cell-based
# How it was run: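 BEAS-2B cells (<70% confluent in culture, BEBM/SingleQuots without GA-1000) seeded in collagen plates with 0.3% or 0% HSA, reaching 95-100% confluency after 48 h at 37 °C, 5% CO2; MTT read-out.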
# [3] = biological target: HIS-Keap1 full length / Biotin-Nrf2 (16-mer) (Homo sapiens, UniProt Q14145); test: biochemical
# [4] = Homo sapiens, serum free, read-out: BEAS EC50 (nM) serum free
# [5] = Homo sapiens, BEAS+, read-out: BEAS+ EC50
# [6] = serum free, read-out: BEAS EC50 (nM) serum free
# [7] = Homo sapiens, Serum Free W, read-out: BEAS EC50 (nM) Serum Free W
# [8] = Serum Free W, read-out: BEAS EC50 (nM) Serum Free W
# [9] = BEAS+ W, read-out: BEAS+ W EC50
# [10] = Homo sapiens, BEAS+ W, read-out: BEAS+ W EC50
# HIS-Keap1 full length / Biotin-Nrf2 (16-mer), sequence (Q14145 whole entry): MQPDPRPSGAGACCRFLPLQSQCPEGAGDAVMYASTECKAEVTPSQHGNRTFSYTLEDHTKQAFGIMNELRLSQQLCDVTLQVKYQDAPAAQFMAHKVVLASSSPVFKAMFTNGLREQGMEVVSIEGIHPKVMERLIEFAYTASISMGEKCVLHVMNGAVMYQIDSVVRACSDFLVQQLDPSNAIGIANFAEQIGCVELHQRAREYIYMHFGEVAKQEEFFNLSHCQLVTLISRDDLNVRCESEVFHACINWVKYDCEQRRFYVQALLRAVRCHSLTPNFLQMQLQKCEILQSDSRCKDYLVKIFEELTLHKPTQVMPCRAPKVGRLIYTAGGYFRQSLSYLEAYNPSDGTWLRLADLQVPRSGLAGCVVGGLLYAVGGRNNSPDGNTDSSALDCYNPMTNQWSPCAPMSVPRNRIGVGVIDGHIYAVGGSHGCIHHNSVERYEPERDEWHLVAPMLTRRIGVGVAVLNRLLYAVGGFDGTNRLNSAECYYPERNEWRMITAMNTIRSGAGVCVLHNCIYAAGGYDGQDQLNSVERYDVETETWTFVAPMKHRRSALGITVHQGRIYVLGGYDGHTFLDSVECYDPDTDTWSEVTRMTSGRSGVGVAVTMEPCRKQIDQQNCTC
Structure (SMILES),"EC50 [1, 4] [nM]","EC50 [2, 5] [nM]",IC50 [3],"EC50 [1, 6] [nM]","EC50 ([2]; BEAS+, read-out: BEAS+ EC50) [nM]","EC50 [1, 7] [nM]","EC50 [1, 8] [nM]","EC50 [2, 9]","EC50 [2, 10] [nM]"
Cc1c2ccc3c1nnn3CCCCCOc1ccc(c3ccccc13)C(=O)N1CCc3ccc(cc3C1)C2CC(=O)O (stereo not shown) [Compound 283],450,418,1.1 nM and 1.7 nM,–,–,–,–,–,–
Cc1c2ccc3c1nnn3CCCCCCOc1ccc(c3ccccc13)C(=O)N1CCc3ccc(cc3C1)C2CC(=O)O (stereo not shown) [Compound 284],3.4,22.8,0.4 nM and 0.3 nM,–,–,–,–,–,–
Cc1c2ccc3c1nnn3CCCCCc1ccc(cc1)C(=O)N1CCc3ccc(cc3C1)[C@@H]2CC(=O)O [Compound 285],4.7,9.8,0.3 nM and 0.5 nM,–,–,–,–,–,–
Cc1c2ccc3c1nnn3CCCCCc1ccc(cc1)C(=O)N1CCc3ccc(cc3C1)[C@H]2CC(=O)O [Compound 286],15.8,44.5,0.7 nM,–,–,–,–,–,–
CC(C)(C(=O)O)C1c2ccc3c(c2)CN(CC3)C(=O)c2ccc(cc2F)OCCCCCCn2nnc3cc1ccc32 (stereo not shown) [Compound 288],2.7,34.3,1.8 nM and 2.3 nM,–,–,–,–,–,–
Cc1cc2ccc1C(=O)N1CCc3ccc(cc3C1)[C@H]([C@H](C)C(=O)O)c1ccc3c(c1)nnn3CCCCCCO2 [Compound 292],349,637,7.7 nM and 5.9 nM,–,–,–,–,–,–
Cc1cc2cc(C)c1C(=O)N1CCc3ccc(cc3C1)C(CC(=O)O)c1ccc3c(c1)nnn3CCCCCCO2 (stereo not shown) [Compound 293],141,208,< 0.1 nM,–,–,–,–,–,–
Cc1cc2ccc1C(=O)N1CCc3ccc(cc3C1)[C@@H]([C@H](C)C(=O)O)c1ccc3c(c1)nnn3CCCCCCO2 [Compound 294],450,809,22.1 nM and 17.3 nM,–,–,–,–,–,–
Cc1cc2ccc1C(=O)N1CCc3ccc(cc3C1)C(CC(=O)O)c1ccc3c(nnn3CCCCCCO2)c1C (stereo not shown) [Compound 297],1.8,2.9,0.2 nM,–,–,–,–,–,–
Cc1cc2ccc1C(=O)N1CCc3ccc(cc3C1)C(C(C)(C)C(=O)O)c1ccc3c(c1)nnn3CCCCCCO2 (stereo not shown) [Compound 299],0.6,3.6,< 0.1 nM,–,–,–,–,–,–
O=C(O)CC1c2ccc(nc2)OCCCCCc2ccc(cc2)C(=O)N2CCc3ccc1cc3C2 (stereo not shown) [Compound 300],3.1,10.8,< 0.1 nM,5.4,7.9,–,–,–,–
Cc1cc2ccc1C(=O)N1CCc3ccc(cc3C1)C(CC(=O)O)c1ccc(nc1)OCCCCCCO2 (stereo not shown) [Compound 301],80.6,317,6.8 nM and 6 nM,144,214,–,–,–,–
Cc1c2ccc3c1nnn3CCCCCOc1ccc(c(Cl)c1)C(=O)N1CCc3ccc(cc3C1)C2CC(=O)O (stereo not shown) [Compound 302],129,134,0.8 nM and 0.9 nM,213,196,–,–,–,–
Cc1c2ccc3c1nnn3CCCCC(F)(F)Oc1ccc(cc1)C(=O)N1CCc3ccc(cc3C1)C2CC(=O)O (stereo not shown) [Compound 304],18.3,25.1,< 0.1 nM and 0.2 nM,–,29,–,–,–,–
O=C(O)CC1c2ccc3c(c2)CN(CC3)C(=O)c2ccc(cc2Cl)OCCCCCCn2nnc3cc1ccc32 (stereo not shown) [Compound 305],345,651,< 0.1 nM,–,748,–,–,–,–
Cc1c2ccc3c1nnn3CCCCCOc1ccc(c(F)c1F)C(=O)N1CCc3ccc(cc3C1)C2CC(=O)O (stereo not shown) [Compound 306],68.1,134,0.1 nM and < 0.1 nM,–,90.1,–,–,–,–
Cc1c2ccc3c1nnn3CCCCCCc1ccc(cc1)C(=O)N1CCc3ccc(cc3C1)C2CC(=O)O (stereo not shown) [Compound 307],0.4,3.7,0.2 nM,–,5.2,–,–,–,–
Cn1c2cc3cc(ccc31)OCCCCCCn1nnc3cc(ccc31)C(CC(=O)O)c1ccc3c(c1)CN(CC3)C2=O (stereo not shown) [Compound 310],698,9100,0.3 nM and < 0.1 nM,–,9570,–,–,–,–

Structure (SMILES),"EC50 [1, 4] [nM]","EC50 [2, 5] [nM]",IC50 [3],"EC50 [1, 6] [nM]","EC50 ([2]; BEAS+, read-out: BEAS+ EC50) [nM]","EC50 [1, 7] [nM]","EC50 [1, 8] [nM]","EC50 [2, 9]","EC50 [2, 10] [nM]"
Cc1c2ccc3c1nnn3CCCCCOc1cc(F)c(c(F)c1)C(=O)N1CCc3ccc(cc3C1)C2CC(=O)O (stereo not shown) [Compound 314],2.6,109,4.4 nM and 1.8 nM,–,–,–,–,–,–
Cc1c2ccc3c1nnn3CCCCCCOc1cc(F)c(c(F)c1)C(=O)N1CCc3ccc(cc3C1)C2CC(=O)O (stereo not shown) [Compound 315],2.2,25.9,0.7 nM and 0.3 nM,–,–,–,–,–,–
Cc1c2ccc3c1nnn3CCCCCOc1ccc(c(F)c1)C(=O)N1CCc3ccc(cc3C1)C2CC(=O)O (stereo not shown) [Compound 316],141,77.9,1.6 nM and 0.9 nM,–,–,–,–,–,–
Cc1c2ccc3c1nnn3CCCCCCOc1ccc(c(F)c1F)C(=O)N1CCc3ccc(cc3C1)C2CC(=O)O (stereo not shown) [Compound 318],20.4,59.2,0.8 nM,–,–,–,–,–,–
O=C(O)CC1c2ccc(nc2)OCCCCCCOc2ccc(cc2)C(=O)N2CCc3ccc1cc3C2 (stereo not shown) [Compound 319],432,1430,99 nM and 106 nM,–,–,–,–,–,–
O=C(O)CC1c2ccc3c(c2)CN(CC3)C(=O)c2ccc(c(F)c2F)OCCCCCCn2nnc3cc1ccc32 (stereo not shown) [Compound 320],332,462,< 0.1 nM,–,–,–,–,–,–
O=C(O)CC1c2ccc3c(c2)CN(CC3)C(=O)c2c(F)cc(cc2F)OCCCCCCn2nnc3cc1ccc32 (stereo not shown) [Compound 321],75.7,88.9,0.4 nM and 0.1 nM,–,–,–,–,–,–
O=C(O)CC1c2ccc3c(c2)CN(CC3)C(=O)c2ccc(cc2F)OCCCCCCn2nnc3cc1ccc32 (stereo not shown) [Compound 322],176,231,0.8 nM and 1 nM,–,–,–,–,–,–
C[C@H](C(=O)O)[C@H]1c2ccc3c(c2)CN(CC3)C(=O)c2ccc(cc2)OCCCCCCn2nnc3cc1ccc32 [Compound 323],135,386,1.2 nM and 1.8 nM,–,–,–,–,–,–
C[C@@H](C(=O)O)[C@H]1c2ccc3c(c2)CN(CC3)C(=O)c2ccc(cc2)OCCCCCCn2nnc3cc1ccc32 [Compound 324],6,18.1,0.4 nM,–,–,–,–,–,–
CC(C(=O)O)C1c2ccc3c(c2)CN(CC3)C(=O)c2ccc(cc2)OCCCCCn2nnc3cc1ccc32 (stereo not shown) [Compound 325],2.9,4,< 0.1 nM,–,–,–,–,–,–
Cc1cc2ccc1C(=O)N1CCc3ccc(cc3C1)[C@@H](CC(=O)O)c1ccc3c(c1)nnn3CCCCCCO2 [Compound 327],52.9,179,0.8 nM and 2.3 nM,46.9,–,–,–,–,–
Cc1c2ccc3c1nnn3CCCCCOc1ccc(cc1)C(=O)N1CCc3ccc(cc3C1)C2CC(=O)O (stereo not shown) [Compound 331],47.4,40.3,1.7 nM and 4.3 nM and 2.6 nM and 10.9 nM,–,–,–,–,–,–
Cc1cc2ccc1C(=O)N1CCc3ccc(cc3C1)C(CC(=O)O)c1ccc3c(c1)nnn3CCCCCCO2 (stereo not shown) [Compound 332],27.4,62.7,< 0.1 nM,–,–,–,–,–,–
Cc1cc2ccc1C(=O)N1CCc3ccc(cc3C1)C(CC(=O)O)c1ccc3c(nnn3CCCCCO2)c1C (stereo not shown) [Compound 335],35,36.1,2.5 nM and 2.9 nM and 6.4 nM and 1.3 nM,–,–,–,–,–,–
O=C(O)CC1c2ccc3c(c2)CN(CC3)C(=O)c2ccc(c3ccccc23)OCCCCCn2nnc3cc1ccc32 (stereo not shown) [Compound 337],1890,2540,0.7 nM and 0.8 nM,–,–,–,–,–,–
Cc1cc2ncc1[C@H](CC(=O)O)c1ccc3c(c1)CN(CC3)C(=O)c1ccc(cc1)CCOCCO2 [Compound 350],–,–,11.5 nM and 10.1 nM and 9.8 nM and 10.2 nM,–,–,161,145,426 nM,276
Cc1cc2ncc1[C@@H](CC(=O)O)c1ccc3c(c1)CN(CC3)C(=O)c1ccc(cc1)CCOCCO2 [Compound 351],–,–,649 nM and 619 nM and 401 nM and 416 nM,–,–,> 1000,1780,2880 nM and 2800 nM,3740
